In patent US20250145566A1, “PHENETHYLAMINE DERIVATIVES, COMPOSITIONS, AND METHODS OF USE” (Cybin IRL Limited, priority 2022, published 2025):
“Also recorded” adds a separate entry of the source.

Assays:
[1] = system: Rat Liver Microsomes; assay: Rat liver microsomes (RLM) in vitro metabolism; assay type: in vitro ADME; details: result in words
Protocol: (§1) Rat Liver Microsomes (RLM). Male Sprague-Dawley rat liver microsomes were purchased from XenoTech. The reaction mixture, minus NADPH, was prepared as described in Table 10. The test compound was added into the reaction mixture at a final concentration of 1 μM. The control compound, testosterone, was run simultaneously with the test compound in a separate reaction. The reaction mixture (without cofactor) was equilibrated in a shaking water bath at 37° C. for 5 minutes. The reaction was initiated by the addition of the cofactor, and the mixture was incubated in a shaking water bath at 37° C. Aliquots (150 μL) were withdrawn at 0, 5, 10, 20, 30, 60, and for some assays at 120 minutes. Test compound and testosterone samples were immediately combined with 150 μL of ice-cold acetonitrile (ACN) containing 0.1% formic acid and internal standard to terminate the reaction. The samples were then mixed and centrifuged to precipitate proteins. All samples were assayed by LC-MS/MS using electrospray ionization. The peak area response ratio (PARR) of analyte to internal standard at each time point was compared to the PARR at time 0 to determine the percent remaining at each time point. Half-lives were calculated using GraphPad software, fitting to a single-phase exponential decay equation.
(§2) In a different series of reactions using RLM, a 10 mM stock solution of the test compound was prepared in DMSO. From this stock solution, an intermediate stock solution of 1 mM was prepared by diluting the compound in DMSO and from this intermediate stock solution, a working solution of 0.30 mM was prepared by diluting the compound in ACN:Water (50:50) as a cocktail of two compounds (i.e., 30 μL the non-deuterated and the deuterated compound in 40 μL diluent in 100 μL total volume). Following this, a master mix of rat liver microsomes (final concentration 0.5 mg/ml, Xenotech Cat #R1000; Lot #1610290) and 0.1 M potassium phosphate buffer was prepared and pre-incubated for 5 min at 37° C. The test compound mixture was then added to achieve a final test article concentration of 1 μM (for each analog if co-dosed; 0.2% DMSO); verapamil was used as a positive control. Subsequently, 10 mM NADPH prepared in 0.1 M potassium phosphate buffer was added (final concentration 1 mM) to initiate the reaction and samples were incubated at 37° C. for the desired time points (0, 5, 15, 30, 45, 60 min). At each time point, 40 μL of the samples were withdrawn and reactions were stopped using 200 μL chilled ACN containing 0.1% formic acid and internal standard carbamazepine (10 ng/mL). The samples were centrifuged, and the supernatant was analyzed by LC-MS/MS. The percent compound remaining at each time point was calculated with respect to that of the 0 min sample. The data were then analyzed to calculate half-life. Blank samples were prepared using DMSO (without the test compound).

[2] = Rat liver microsomes (RLM) in vitro metabolism; assay type: in vitro ADME; details: Sprague-Dawley, pH 7.4; rat liver microsomes, test compound 1 μM; * = apparent NADPH independent reaction; read-out: RLM t1/2
Protocol: as §1, §2

[3] = target: T1, 5-HT transporter (h) (Homo sapiens, UniProt P31645); assay: 5-HT transporter (h) binding, [3H]imipramine; details: for selectivity for binding SERT over DAT and NET, in words: affinity screen at 10 μM
T1 construct: expressed in transfected cells; host or cells: CHO cells
T1 sequence (P31645 whole entry): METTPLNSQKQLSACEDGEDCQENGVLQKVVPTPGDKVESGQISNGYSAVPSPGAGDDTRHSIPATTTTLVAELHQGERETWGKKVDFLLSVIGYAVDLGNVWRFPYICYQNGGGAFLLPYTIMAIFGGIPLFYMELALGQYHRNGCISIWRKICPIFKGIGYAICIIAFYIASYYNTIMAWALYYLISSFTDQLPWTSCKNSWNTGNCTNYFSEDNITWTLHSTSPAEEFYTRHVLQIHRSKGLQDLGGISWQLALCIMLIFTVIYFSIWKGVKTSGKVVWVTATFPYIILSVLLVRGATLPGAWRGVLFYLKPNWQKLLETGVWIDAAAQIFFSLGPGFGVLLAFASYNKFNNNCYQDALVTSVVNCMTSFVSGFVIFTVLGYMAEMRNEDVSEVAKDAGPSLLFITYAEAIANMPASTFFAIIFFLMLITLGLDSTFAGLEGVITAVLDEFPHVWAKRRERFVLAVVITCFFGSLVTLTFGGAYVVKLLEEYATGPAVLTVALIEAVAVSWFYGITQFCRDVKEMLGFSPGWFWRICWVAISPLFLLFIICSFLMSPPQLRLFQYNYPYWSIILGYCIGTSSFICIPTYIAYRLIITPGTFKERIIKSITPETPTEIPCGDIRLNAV

[4] = target: T2, 5-HT2A (h) (Homo sapiens, UniProt P28223); assay: 5-HT2A (h) agonist effect, IP1 HTRF functional assay; assay type: cell-based; details: for agonist efficacy at 5-HT2A, in words: EMAX relative to 5-HT
T2 construct: expressed in transfected cells; host or cells: HEK-293 cells
T2 sequence (P28223 whole entry): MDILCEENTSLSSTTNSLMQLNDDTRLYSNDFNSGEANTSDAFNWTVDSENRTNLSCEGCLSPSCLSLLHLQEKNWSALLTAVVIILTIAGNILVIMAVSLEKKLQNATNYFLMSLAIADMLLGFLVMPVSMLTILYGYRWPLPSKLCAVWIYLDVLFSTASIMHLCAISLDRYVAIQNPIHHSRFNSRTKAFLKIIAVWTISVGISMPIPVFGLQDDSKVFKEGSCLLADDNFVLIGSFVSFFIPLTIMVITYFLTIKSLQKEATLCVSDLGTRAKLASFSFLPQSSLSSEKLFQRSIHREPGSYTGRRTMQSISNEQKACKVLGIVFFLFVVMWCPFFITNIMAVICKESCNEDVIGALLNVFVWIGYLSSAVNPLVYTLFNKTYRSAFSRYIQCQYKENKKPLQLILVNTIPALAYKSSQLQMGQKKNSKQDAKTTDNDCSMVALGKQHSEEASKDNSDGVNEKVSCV

[5] = target: T3, MAO-B (Homo sapiens, UniProt P27338); assay: human MAO-B in vitro metabolism; assay type: in vitro ADME; details: human MAO-B enzyme (Corning), test compound 1 μM, read-out: MAO-B t1/2
T3 construct: purchased Corning 456284
T3 sequence (P27338 1-520): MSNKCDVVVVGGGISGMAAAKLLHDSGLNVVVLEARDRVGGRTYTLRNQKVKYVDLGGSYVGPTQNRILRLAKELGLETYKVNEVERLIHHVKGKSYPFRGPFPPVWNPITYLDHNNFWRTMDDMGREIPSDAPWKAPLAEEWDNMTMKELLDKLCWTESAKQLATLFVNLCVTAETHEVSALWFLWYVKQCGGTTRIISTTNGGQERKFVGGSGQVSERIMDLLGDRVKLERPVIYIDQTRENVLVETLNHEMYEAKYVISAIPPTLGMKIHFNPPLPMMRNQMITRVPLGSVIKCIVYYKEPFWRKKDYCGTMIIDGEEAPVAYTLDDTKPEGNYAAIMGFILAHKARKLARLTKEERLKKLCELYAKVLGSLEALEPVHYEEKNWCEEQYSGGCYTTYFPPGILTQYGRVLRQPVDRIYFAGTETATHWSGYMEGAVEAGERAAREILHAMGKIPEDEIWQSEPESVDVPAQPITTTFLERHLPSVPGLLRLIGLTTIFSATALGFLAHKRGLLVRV
Protocol: In a different series of reactions using human MAO-A and MAO-B, a 10 mM stock solution of the test compound was prepared in DMSO. From this stock solution, an intermediate stock solution of 1 mM was prepared by diluting the compound in DMSO and from this intermediate stock solution, a working solution of 0.30 mM was prepared by diluting the compound in ACN:Water (50:50) as cocktail of 2 compounds (30 μL each compound in 40 μL diluent for 100 μL). Following this, a master mix of 0.1 M potassium phosphate buffer and test compound mixture i.e., the non-deuterated and the deuterated analog, were prepared to achieve final drug concentration of 1 μM (0.2% DMSO) for the required number of reactions. The aforementioned master mix was pre-incubated at 37° C. for 5 min. To this master mix, MAO-A (final protein conc. 0.1 mg/mL; Corning Cat #456283; Lot #1173003) or MAO-B (final protein conc. 0.1 mg/mL; Corning Cat #456284; Lot #0318001) was added to initiate the reaction. The samples were then incubated at 37° C. for the desired time points. At each time point (0, 5, 15, 30, 45, 60), 40 μL of the samples were withdrawn and reactions were stopped using 200 μL chilled ACN containing 0.1% formic acid and internal standard Carbamazepine (10 ng/mL). The samples were centrifuged, and the supernatant was analyzed by LC-MS/MS. The percent compound remaining at each time point was calculated with respect to that of the 0 min sample. The data were then analyzed to calculate half-life and intrinsic clearance (CLint). Blank samples were prepared using DMSO (without the test compound).

[6] = target: T4, 5-HT2B (h) (Homo sapiens, UniProt P41595); assay: 5-HT2B (h) agonist radioligand [125I](±)DOI binding; details: at 10 μM
T4 construct: expressed in transfected cells; host or cells: CHO cells
T4 sequence (P41595 whole entry): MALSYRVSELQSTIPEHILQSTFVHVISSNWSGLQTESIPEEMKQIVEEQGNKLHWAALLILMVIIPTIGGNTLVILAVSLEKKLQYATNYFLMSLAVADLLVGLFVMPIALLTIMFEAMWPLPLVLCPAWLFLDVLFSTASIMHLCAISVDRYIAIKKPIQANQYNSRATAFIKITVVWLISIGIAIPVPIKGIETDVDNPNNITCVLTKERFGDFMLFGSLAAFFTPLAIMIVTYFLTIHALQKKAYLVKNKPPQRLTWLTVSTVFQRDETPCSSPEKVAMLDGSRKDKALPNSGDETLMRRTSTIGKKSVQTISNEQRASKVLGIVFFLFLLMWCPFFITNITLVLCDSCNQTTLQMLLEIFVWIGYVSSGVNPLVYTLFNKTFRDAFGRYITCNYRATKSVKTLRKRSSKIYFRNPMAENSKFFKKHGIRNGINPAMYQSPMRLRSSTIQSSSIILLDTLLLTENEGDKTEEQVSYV
Protocol: Samples were then analyzed as described above.

[7] = target: T5, norepinephrine transporter (h) (Homo sapiens, UniProt P23975); assay: norepinephrine transporter (h) binding, [3H]nisoxetine; details: at 10 μM; table calls these values “No Binding”
T5 construct: expressed in transfected cells; host or cells: CHO cells
T5 sequence (P23975 whole entry): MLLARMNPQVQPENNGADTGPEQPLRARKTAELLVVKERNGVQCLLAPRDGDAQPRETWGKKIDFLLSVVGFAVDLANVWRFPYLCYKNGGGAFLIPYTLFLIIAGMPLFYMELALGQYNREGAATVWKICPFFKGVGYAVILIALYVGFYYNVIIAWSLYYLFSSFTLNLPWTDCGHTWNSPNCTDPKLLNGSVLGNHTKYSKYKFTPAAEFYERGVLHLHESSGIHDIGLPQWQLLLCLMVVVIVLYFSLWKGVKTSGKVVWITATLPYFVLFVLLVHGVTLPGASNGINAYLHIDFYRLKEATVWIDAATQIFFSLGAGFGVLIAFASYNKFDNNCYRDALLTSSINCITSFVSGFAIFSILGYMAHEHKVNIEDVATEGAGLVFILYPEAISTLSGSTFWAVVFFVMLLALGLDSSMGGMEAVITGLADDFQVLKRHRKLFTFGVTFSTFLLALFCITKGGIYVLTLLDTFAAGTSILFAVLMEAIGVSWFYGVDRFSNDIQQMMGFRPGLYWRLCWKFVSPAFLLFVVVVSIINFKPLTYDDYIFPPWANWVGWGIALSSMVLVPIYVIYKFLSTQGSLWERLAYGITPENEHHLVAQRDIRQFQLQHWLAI

[8] = target: T6, dopamine transporter (h) (Homo sapiens, UniProt Q01959); assay: dopamine transporter (h) binding, [3H]BTCP; details: at 10 μM; table calls these values “No Binding”
T6 construct: expressed in transfected cells; host or cells: CHO cells
T6 sequence (Q01959 whole entry): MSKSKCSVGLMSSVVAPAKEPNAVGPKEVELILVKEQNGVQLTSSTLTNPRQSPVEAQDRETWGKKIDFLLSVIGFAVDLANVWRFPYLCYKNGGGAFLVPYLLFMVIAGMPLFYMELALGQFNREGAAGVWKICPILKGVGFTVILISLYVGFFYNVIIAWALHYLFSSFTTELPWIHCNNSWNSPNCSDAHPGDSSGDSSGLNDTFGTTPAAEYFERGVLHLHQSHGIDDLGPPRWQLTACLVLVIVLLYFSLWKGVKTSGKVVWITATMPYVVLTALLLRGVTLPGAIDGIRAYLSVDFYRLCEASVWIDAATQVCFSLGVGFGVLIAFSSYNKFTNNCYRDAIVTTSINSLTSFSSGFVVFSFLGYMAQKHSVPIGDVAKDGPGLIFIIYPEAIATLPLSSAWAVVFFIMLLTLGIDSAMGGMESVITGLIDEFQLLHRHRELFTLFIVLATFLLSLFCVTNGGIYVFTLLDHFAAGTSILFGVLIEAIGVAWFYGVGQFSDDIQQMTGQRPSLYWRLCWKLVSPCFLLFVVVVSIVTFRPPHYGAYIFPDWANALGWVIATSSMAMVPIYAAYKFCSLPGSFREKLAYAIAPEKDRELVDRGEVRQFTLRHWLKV

For `CC(N)Cc1ccc2c(c1)OCS2` (centres unmarked) [II-16, 1-(benzo[d][1,3]oxathiol-6-yl)propan-2-amine], the “disappearance in RLM, NADPH dependence” value [1] was “NADPH-independent”, the half-life at 1 µM [2] was 11.7 min and the “selectivity for binding SERT over DAT and NET, in words” value [3] was “substantial selectivity for binding SERT over DAT and NET”. For the same compound, the “agonist efficacy at 5-HT2A, in words” value ([4]; tested at 1, 3, 10, 100 μM) was “nearly full or full agonist; also recorded: full agonists” and the half-life at 1 µM [5] was 857 min.

In the case of `NCCc1ccc2c(c1)OCS2` [II-14, 2-(benzo[d][1,3]oxathiol-6-yl)ethan-1-amine], the “disappearance in RLM, NADPH dependence” value [1] is reported as “NADPH-independent”, the half-life at 1 µM [2] is reported as less than 5 min and the “selectivity for binding SERT over DAT and NET, in words” value [3] is reported as “substantial selectivity for binding SERT over DAT and NET”. For the same compound, the “Binding SERT (antagonist radioligand), % competition” value ([3]; at 10 μM) was 54.7% competition, the “Binding 5-HT2B (agonist radioligand), % competition” value [6] was 100.3% competition and the EC50 [4] was 3 µM. The Emax at 100 µM ([4]; at 100 μM, relative to 5-HT, read-out: Function 5-HT2A EMAX) was 87.3%, the “Function 5-HT2A (IP-1, efficacy relative to 5-HT), agonist type” value ([4]; tested at 1, 3, 10, 100 μM) was “Nearly full agonist -” and the “agonist efficacy at 5-HT2A, in words” value ([4]; tested at 1, 3, 10, 100 μM) was “nearly full or full agonist; also recorded: full agonists”. The “Binding NET (antagonist radioligand), % competition” value [7] was 40.5% competition, the “Binding DAT (antagonist radioligand), % competition” value [8] was 26% competition and the half-life at 1 µM [5] was less than 5 min.
